Target: T1, frataxin precursor (aa 1-210) (Homo sapiens, UniProt Q16595)
T1 construct: gene FXN; full-length precursor, aa 1-210, recombinant, expressed and purified by GenScript
T1 sequence (Q16595 1-210): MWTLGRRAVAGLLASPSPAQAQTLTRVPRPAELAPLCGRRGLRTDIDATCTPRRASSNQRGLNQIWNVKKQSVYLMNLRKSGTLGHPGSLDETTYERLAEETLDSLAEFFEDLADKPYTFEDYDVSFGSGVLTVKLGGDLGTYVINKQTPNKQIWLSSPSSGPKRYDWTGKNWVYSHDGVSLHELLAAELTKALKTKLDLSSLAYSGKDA
Test: intrinsic Trp fluorescence quenching, hyperbolic isotherm
Settings: 20 °C; 2 μM protein; ligand 0.5-25 μM; half-saturation binding constant; read-out: L1/2

SMILES | Kd
C/C(=N\NC(=O)c1ccc(C)cc1C)c1ccc2c(c1)Nc1ccccc1S2 [UCM53] | 2.9 ± 0.3 µM
C/C(=N\NC(=O)c1ccccc1)c1ccc2c(c1)Nc1ccccc1S2 [UCM108] | 2.3 ± 0.3 µM
